Data set [1] has as its target T1, Macrophage colony-stimulating factor 1 receptor (Homo sapiens, UniProt P07333). The data set can be described thus: Inhibition of ATP-induced autophosphorylation of cFMS tyrosine kinase.
In data set [2] the target is T1, Macrophage colony-stimulating factor 1 receptor. In words: Inhibition of ATP-induced autophosphorylation of cFMS tyrosine kinase in HEK 293 cells. The class given is cell-based, HEK293.
Data set [3] in a line: Metabolic stability in human liver microsomes after 10 mins. The data set is classed as ADME, Microsome. The conditions noted are these: read-out: Stability. A general note: Liver microsomes are a subcellular fraction often used to study metabolism.

The values that follow come from ChEMBL document CHEMBL1140541, “Potent 2'-aminoanilide inhibitors of cFMS as potential anti-inflammatory agents” (Bioorg Med Chem Lett, 2007).

SMILES strings stand for the structures. Bounds are passed on as bounds.

T1 sequence (P07333 whole entry): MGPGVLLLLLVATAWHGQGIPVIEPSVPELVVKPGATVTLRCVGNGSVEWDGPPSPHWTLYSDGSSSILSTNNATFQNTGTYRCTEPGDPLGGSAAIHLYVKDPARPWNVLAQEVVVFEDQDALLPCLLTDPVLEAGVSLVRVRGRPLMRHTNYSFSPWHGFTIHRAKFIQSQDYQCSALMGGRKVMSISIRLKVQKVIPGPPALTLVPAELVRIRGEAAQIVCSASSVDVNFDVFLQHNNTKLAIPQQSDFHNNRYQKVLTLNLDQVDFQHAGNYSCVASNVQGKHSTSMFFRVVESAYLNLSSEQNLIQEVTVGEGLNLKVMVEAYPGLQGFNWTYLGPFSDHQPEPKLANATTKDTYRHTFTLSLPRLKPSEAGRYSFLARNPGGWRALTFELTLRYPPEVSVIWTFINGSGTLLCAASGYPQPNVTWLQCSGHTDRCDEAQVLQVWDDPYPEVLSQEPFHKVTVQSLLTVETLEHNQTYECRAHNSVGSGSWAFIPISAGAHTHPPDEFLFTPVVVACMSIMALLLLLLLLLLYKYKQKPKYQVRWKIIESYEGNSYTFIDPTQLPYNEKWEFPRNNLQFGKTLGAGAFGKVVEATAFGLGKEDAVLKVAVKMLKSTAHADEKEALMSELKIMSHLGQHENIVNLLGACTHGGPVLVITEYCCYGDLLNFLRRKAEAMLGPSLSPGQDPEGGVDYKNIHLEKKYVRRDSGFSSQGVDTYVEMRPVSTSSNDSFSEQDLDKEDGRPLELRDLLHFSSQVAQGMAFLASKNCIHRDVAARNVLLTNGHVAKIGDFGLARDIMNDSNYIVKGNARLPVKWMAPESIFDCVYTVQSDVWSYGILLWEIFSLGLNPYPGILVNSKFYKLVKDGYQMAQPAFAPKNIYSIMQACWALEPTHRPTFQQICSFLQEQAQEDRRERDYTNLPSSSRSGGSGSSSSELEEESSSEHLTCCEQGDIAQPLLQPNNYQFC

As usually defined, the IC50 is the concentration that gives 50% inhibition. For `CCCN(CCC)c1ccccc1NC(=O)c1ccc([N+](=O)[O-])o1`, in data set [1], the IC50 was over 10000 nM.

In data set [1], `O=C(Nc1ccccc1Nc1ccccc1)c1ccc([N+](=O)[O-])o1` showed an IC50 of over 10000 nM.

As for `O=C(Nc1ccccc1N1CCC(O)CC1)c1ccc([N+](=O)[O-])o1`, the IC50 amounted to 370 nM in data set [2] and 140 nM in data set [1].

As for `O=C(Nc1ccccc1N1CCC1)c1ccc([N+](=O)[O-])o1`, in data set [1], the half-inhibitory concentration (IC50) was over 10000 nM.

As to `O=C(Nc1ccccc1N1CCC(CO)CC1)c1ccc([N+](=O)[O-])o1`, the results for the IC50 in data set [2] and in data set [1] were 1400 nM and 130 nM, respectively.

For `O=C(O)c1ccc(C(=O)Nc2ccccc2N2CCCCC2)o1`, in data set [1], the IC50 is over 10000 nM.

In data set [1], `O=C(Nc1ccccc1N1CCCCC1)c1ccc(C(F)(F)F)o1` returned an IC50 of over 10000 nM.

Regarding `N#Cc1ccc(C(=O)Nc2ccccc2N2CCCCC2)o1`, the IC50 in data set [2] is 370 nM; in data set [1], 36 nM.

Consider `N#Cc1ccc(C(=O)Nc2cc(O)ccc2N2CCCCC2)o1`, for which the IC50 in data set [2] turned out to be 2700 nM; in data set [1], 17 nM.

Turning to `COc1ccc(N2CCCCC2)c(NC(=O)c2ccc(C#N)o2)c1`, the IC50 in data set [2] was 960 nM; in data set [1], 90 nM.

For the molecule `N#Cc1ccc(C(=O)Nc2cc(CN)ccc2N2CCCCC2)o1`, the IC50 in data set [2] was found to be 3100 nM; in data set [1] it was 200 nM.

As to `N#Cc1ccc(C(=O)Nc2cc(C=O)ccc2N2CCCCC2)o1`, the figures for the IC50 in data set [2] and in data set [1] were 330 nM and 37 nM, respectively.

As to `N#Cc1ccc(C(=O)Nc2cc(C(=O)O)ccc2N2CCCCC2)o1`, the IC50 in data set [2] and in data set [1] was over 2000 nM in each case.

Consider `N#Cc1ccc(C(=O)Nc2cc(N3CCCCC3)ccc2N2CCCCC2)o1`, for which the IC50 in data set [2] stood at 76 nM; in data set [1], 17 nM.

As for `O=C(Nc1ccccc1N1CCCC1)c1ccc([N+](=O)[O-])o1`, half-maximal inhibition in data set [1] (IC50) required 1900 nM.

As for `CS(=O)(=O)NCc1ccc(N2CCCCC2)c(NC(=O)c2ccc(C#N)o2)c1`, the IC50 in data set [2] amounted to 310 nM; in data set [1], 37 nM.

On to `O=C(Nc1ccccc1N1C=CC=CC=C1)c1ccc([N+](=O)[O-])o1`, for which the values for the IC50 in data set [2] and in data set [1] were 2000 nM and 260 nM, respectively.

The molecule `CC1CCCCN1c1ccccc1NC(=O)c1ccc([N+](=O)[O-])o1` (stereo unspecified) came in with an IC50 in data set [1] of 720 nM.

In turn, `O=C(Nc1ccccc1N1CCCCC1)c1ccco1` displayed an IC50 in data set [1] of over 10000 nM.

In data set [1], `O=C(Nc1ccccc1N1CCCCC1)c1ccc(Nc2ccccc2)o1` had an IC50 of over 10000 nM.

The molecule `O=C(Nc1ccccc1N1CCCCC1)c1ccc(-c2ccccc2)o1` showed an IC50 in data set [1] of over 10000 nM.

In data set [1], `O=C(Nc1ccccc1N1CCCCC1)c1ccc(Br)o1` gave an IC50 of 4400 nM.

In the case of `O=C(Nc1ccccc1N1CCCCC1)c1ccc(Cl)o1`, the IC50 in data set [1] came out at 1900 nM. This IC50 is about 2.3-fold lower than that of the molecule before.

Turning to `O=C(Nc1ccccc1N1CCC(CCO)CC1)c1ccc([N+](=O)[O-])o1`, the IC50 in data set [2] is 230 nM; in data set [1], 43 nM.

In data set [1], `O=C(Nc1ccccc1N1CCOCC1)c1ccc([N+](=O)[O-])o1` displayed an IC50 of 1100 nM.

With `O=C(Nc1ccccc1N1CCNCC1)c1ccc([N+](=O)[O-])o1`, the IC50 in data set [1] was over 10000 nM.

`CCCN(CC)c1ccccc1NC(=O)c1ccc([N+](=O)[O-])o1` yielded an IC50 in data set [1] of over 10000 nM.

As for `CC1CCN(c2ccccc2NC(=O)c2ccc([N+](=O)[O-])o2)CC1`, the remaining at 10 min in data set [3] turned out to be 100%. Also, the IC50 in data set [2] turned out to be 300 nM; in data set [1], 78 nM.

For the molecule `N#Cc1ccc(C(=O)Nc2cc(COCC(O)CO)ccc2N2CCCCC2)o1` (stereo unspecified), the values for the IC50 in data set [2] and in data set [1] were 170 nM and 19 nM, respectively.

Take `O=C(Nc1ccccc1N1CCCCC1)c1cc([N+](=O)[O-])c[nH]1`: the IC50 was found to be 180 nM in data set [2] and 47 nM in data set [1].

`N#Cc1c[nH]c(C(=O)Nc2ccccc2N2CCCCC2)c1`: the 50% inhibitory concentration (IC50) in data set [2] came out at 150 nM; in data set [1], 47 nM.

In data set [1], `O=C(Nc1ccccc1N1CCC(CO)C1)c1ccc([N+](=O)[O-])o1` (stereo unspecified) came in with an IC50 of over 10000 nM.

For the molecule `O=Cc1ccc(C(=O)Nc2ccccc2N2CCCCC2)o1`, the IC50 in data set [1] was determined as 1100 nM.

The molecule `O=C(Nc1ccccc1N1CCC(O)C1)c1ccc([N+](=O)[O-])o1` (stereo unspecified) registered an IC50 in data set [1] of over 10000 nM.

Consider `N#Cc1ccc(C(=O)Nc2cc(CO)ccc2N2CCCCC2)o1`, for which the remaining at 10 min in data set [3] turned out to be 25%. The IC50 stood at 190 nM in data set [2] and 25 nM in data set [1].

Take `N#Cc1ccc(N2CCCCC2)c(NC(=O)c2ccc(C#N)o2)c1`: the IC50 in data set [2] was determined as 750 nM; in data set [1] it was 120 nM.

As to `O=C(Nc1ccccc1N1CCN(c2ccccc2)CC1)c1ccc([N+](=O)[O-])o1`, the IC50 in data set [1] was over 10000 nM.

Turning to `NC(=O)c1ccc(C(=O)Nc2ccccc2N2CCCCC2)o1`, the IC50 in data set [1] is over 10000 nM.

Take `N#Cc1ccc(C(=O)Nc2cc(CN=C(N)N)ccc2N2CCCCC2)o1`: the values for the IC50 in data set [2] and in data set [1] were 2600 nM and 34 nM, respectively.

In the case of `CC1CCN(c2ccc(CO)cc2NC(=O)c2ccc(C#N)o2)CC1`, the remaining at 10 min in data set [3] was found to be 83%.

As to `Nc1ccc(C(=O)Nc2ccccc2N2CCCCC2)o1`, the IC50 in data set [1] was over 10000 nM.

The molecule `CC1CC(C)CN(c2ccccc2NC(=O)c2ccc([N+](=O)[O-])o2)C1` (stereo unspecified) returned an IC50 in data set [1] of 5300 nM.

As to `O=C(Nc1ccccc1N1CCCCC1)c1ccc([N+](=O)[O-])o1`, the remaining at 10 min in data set [3] stood at 41%.

On to `CC1CCCN(c2ccccc2NC(=O)c2ccc([N+](=O)[O-])o2)C1` (stereo unspecified), for which the half-maximal inhibitory concentration (IC50) in data set [2] was found to be 2200 nM; in data set [1], 380 nM.
